The values below are quoted from earlier work in paper PMC11070244 (Current Research in Structural Biology, 2024).

The target of one data set is AChE (Homo sapiens, UniProt P22303). The settings on record: in vitro experiments; ref Durmaz et al. (2023).
Data set [1] deals with T1, BChE (Homo sapiens, UniProt P06276). The settings on record: in vitro experiments; ref Durmaz et al. (2023).
Data set [2] addresses T1, BChE. As to conditions: ref Khan et al., 2009.

T1 sequence (P06276 29-602, species assumed): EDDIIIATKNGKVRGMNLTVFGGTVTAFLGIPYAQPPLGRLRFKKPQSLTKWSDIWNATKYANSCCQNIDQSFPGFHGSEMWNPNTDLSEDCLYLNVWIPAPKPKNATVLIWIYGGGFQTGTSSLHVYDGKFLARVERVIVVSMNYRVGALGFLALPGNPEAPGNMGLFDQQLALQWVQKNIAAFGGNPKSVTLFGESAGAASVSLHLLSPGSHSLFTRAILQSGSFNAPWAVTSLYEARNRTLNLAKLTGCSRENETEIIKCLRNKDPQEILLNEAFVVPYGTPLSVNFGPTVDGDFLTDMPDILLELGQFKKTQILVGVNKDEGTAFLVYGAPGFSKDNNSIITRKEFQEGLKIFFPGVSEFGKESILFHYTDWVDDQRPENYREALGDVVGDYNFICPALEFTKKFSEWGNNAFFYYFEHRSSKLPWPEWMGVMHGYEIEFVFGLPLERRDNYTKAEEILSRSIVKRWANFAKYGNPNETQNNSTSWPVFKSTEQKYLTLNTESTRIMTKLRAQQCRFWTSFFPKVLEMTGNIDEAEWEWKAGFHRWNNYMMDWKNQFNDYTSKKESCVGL
AChE, sequence (P22303 32-614): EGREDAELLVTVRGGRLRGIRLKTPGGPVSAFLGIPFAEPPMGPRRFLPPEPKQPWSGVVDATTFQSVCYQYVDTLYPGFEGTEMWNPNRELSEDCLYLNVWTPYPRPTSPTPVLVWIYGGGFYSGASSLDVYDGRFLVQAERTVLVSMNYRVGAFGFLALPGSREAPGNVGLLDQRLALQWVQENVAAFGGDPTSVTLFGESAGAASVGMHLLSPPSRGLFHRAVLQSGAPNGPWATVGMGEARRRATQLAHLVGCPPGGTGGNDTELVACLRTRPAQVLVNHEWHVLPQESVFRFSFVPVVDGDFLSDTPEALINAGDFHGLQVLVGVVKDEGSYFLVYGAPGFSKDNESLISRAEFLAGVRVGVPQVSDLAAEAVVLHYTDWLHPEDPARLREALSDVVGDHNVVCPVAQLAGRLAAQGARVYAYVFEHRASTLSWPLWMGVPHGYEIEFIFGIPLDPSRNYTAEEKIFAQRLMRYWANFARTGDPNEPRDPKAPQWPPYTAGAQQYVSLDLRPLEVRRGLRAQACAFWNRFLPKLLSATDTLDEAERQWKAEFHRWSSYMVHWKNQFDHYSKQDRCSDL

As for `O=C(O)[C@H]1O[C@@H](Oc2cc3oc(-c4ccccc4)cc(=O)c3c(O)c2O)[C@H](O)[C@@H](O)[C@@H]1O` [baicalin], on AChE, the “Inhibition of AChE activity” value was “significantly inhibited”. For the same molecule, the “Inhibition of BChE activity” value on BChE [1] is listed as “significantly inhibited”.

On to `O=c1c(O)c(-c2ccc(O)c(O)c2)oc2cc(O)cc(O)c12` [quercetin], for which the “Docking score with BChE compared to donepezil” value at BChE [2] is recorded as “stronger docking score”.
